In US12053480B2, “Methods and pharmaceutical compositions for treating peripheral demyelinating diseases” (INSERM (INSTITUT NATIONAL DE LA SANTE ET DE LA RECHERCHE …, priority 2015, dated 2024):
“Also recorded” adds a separate entry of the source.

Assays:
VDAC1 = target: T1, VDAC1 (Mus musculus, UniProt Q60932); assay: Mitochondrial calcium imaging (mito-GCaMP2, multiphoton) in mSC of mouse sciatic nerve, nerve crush model; assay type: in vivo; details: mito-GCaMP2; VDAC1 silenced or drug given before crush
T1 construct: strongly expressed in mSC mitochondria; from tissue; host or cells: myelinating Schwann cells (mSC) of the sciatic nerve of living mice (wild type; db/db and +/db in A10)
Protocol: Mice were anesthetized with isoflurane inhalation and placed under a Stemi2000 microscope (Zeiss). Incision area was shaved and cleaned using betadine solution. After incision, the gluteus superficialis and biceps femoris muscles were separated to reveal the cavity traversed by the sciatic nerve. The nerve was lift out using spatula and a thin glass needle filled with viral solution (8 μl) was introduced into the nerve with a micromanipulator. This solution was injected over 30 min with short pressure pulses using a Picospritzer III (Parker Hannifin) coupled to a pulse generator. After injection, the nerve was replaced into the cavity, the muscles were readjusted, and the wound was closed using clips (for further details see Gonzalez et al., 2014^3).
(§1) TRO19622 drug (Tocris bioscience, Ref. 2906) was diluted in ethanol to 20 mM and then, the solution was diluted in sterile PBS to 20 μM. TRO19622 treatments were realized by 3 mg/kg intraperitoneal (IP) injections of 20 mM solution or by intra sciatic nerve injections of 2 μl of drug solution 2 μM using a Hamilton syringe or a glass needle in sterile conditions 30 minutes before multiphoton image acquisitions or immunohistochemistry and demyelination studies respectively. Methyl jasmonate drug (Sigma-Aldrich, Ref. 392707) was diluted in 1 ml of sterile PBS to 1M or 3M. Methyl jasmonate treatments were realized by intra sciatic nerve injections of 1 μl of drug solution using a glass needle and micromanipulator in sterile conditions following the same virus injections procedure (see in vivo virus injection in the sciatic nerve method) two hours before multiphoton image acquisition. […] All drug concentrations were previously evaluated by Bordet et al, 2007^5; Goldin et al, 2008^6; Sharov et al, 2007^7.
First injected mouse was anesthetized with 5% of isoflurane a 1.5% of oxygen into the anesthesia system box (World Precision Instruments, Ref. EZ-B800) for 5 minutes. Anesthesia controls were realized^8. Then, mouse was placed in anesthesia mask and the incision area was shaved and cleaned with betadine and ethanol 70% solution. Incision was realized using a scalpel and the skin was retracted using forceps in order to expose the gluteus superficialis and bleeps femoris muscles. Next, the connective tissue that connects both muscles was cut and the sciatic nerve was gently lifted out using a spatula. A flexible bridge was slide below sciatic nerve and it was placed into a plastic first pool fixed to the bridge. Mouse was placed under the multiphoton microscope, the bridge was fixed using magnetic brackets to avoid physiological movement and mouse legs were fixed using clippers. Microscope dark box temperature is controlled to 37° C. during all time-lapse imaging. Finally, a second pool was fixed to the first pool using a drop of agarose low melting 3% (Promega, Ref. V2111) in Leibovitz's L15 medium (Gibco Life Technologies) and filled with deionized water to immerse the objectives 20× or 63× (Carl Zeiss Microscopy).
All time-lapse images were obtained with a multiphoton microscope Zeiss LSM 7 MP OPO. Mitochondria motility images were acquired by time-lapse recording of one image every five minutes during five hours at 920 nm. GCaMP2 and SypHer probe images were acquired by time-lapse recording of one image every fifteen minutes during five hours at 985 nm. Images were acquired to constant 1% of laser intensity to 100 msec of acquisition time with 512×512 resolution and 10 images of z-stack of 20 μm. Images were saved in Zeiss .czi format and processed using Image J program. For further details see Gonzalez et al., 201X^8
To characterize mitochondria physiology during the demyelination process we combined two in vivo methods. We used the nerve crush model to reliably induce demyelination in the mouse sciatic nerve and a viral approach^19 allowing the expression of different fluorescent probes selectively into mitochondria of myelinating Schwann cells (mSC) in mouse sciatic nerve.

phospho-c-jun = assay: Immunohistochemistry of nuclear phospho-c-jun in mSC after nerve crush or MJ; assay type: in vivo, mouse; details: immunohistochemistry; TRO19622 30 minutes prior crush
Protocol: The dissected nerve was washed in L15 medium, fixed in Zamboni's fixative (Stefanini et al., 1967^4) for 10 min at room temperature, washed in PBS, and incubated in successive glycerol baths (15, 45, 60, 66% in PBS) for 18 to 24 h each before freezing at −20° C. The nerves were cut in small pieces in 66% glycerol and the perineurium sheet removed. Small bundles of fibers were teased in double-distilled water on Superfrost slides, dried overnight at room temperature, and the slides stored at −20° C. For immunostaining, the teased fibers were incubated for 1 h at room temperature in blocking solution (10% goat serum, 0.2% TritonX100, and 0.01% sodium azide in PBS). Then, the samples were then incubated with anti-ECCD2 primary mouse antibody (1/100, BD biosciences, Ref. 610181), anti-phosphoS63-c-jun primary mouse antibody (1/200, BD Biosciences, Ref. 558036), anti-c-jun primary mouse antibody (1/200, BD Biosciences, Ref. 610326), anti-VDAC primary rabbit antibody (1/100, Cell Signaling, Ref. 4866) or/and MitoTracker Red (1/1000, Molecular Probes, Ref. M7515) in blocking solution overnight at 4° C. The next day, the samples were washed in PBS and incubated for 1 h at room temperature with secondary donkey antibodies coupled to Alexa488, Alexa 594 or Alexa647 (1/1600, Molecular probes) and TO-PRO-3 iodide (50 μM, Invitroge, Ref. T3605). Finally the samples were washed in PBS and mounted in Immu-mount (Thermo Scientific). Images were acquired at room temperature using a 20× or 40× objective, a Zeiss confocal microscope LSM710, and its associated software.
as §1
To go further we also selectively silenced VDAC1 in mSC and measured the expression level of nuclear phospho-c-jun by immunohistochemistry after nerve crush. […]

[1] = test system: phospho-ERK1/2, phospho-p38, phospho-JNK and phospho-c-jun; assay: Western blot of MAPK demyelination pathways in CMT1A rats; assay type: in vivo, rat; details: for activation of phospho-ERK1/2, phospho-p38, phospho-JNK and phospho-c-jun: after 15 and 30 days of treatment
Description: While demyelinating diabetes peripheral neuropathy is a commonly acquired disease, demyelination is also the characteristic feature of a large number of inherited diseases called Charcot-Marie-Tooth diseases (CMT). We therefore sought to test whether the inhibition of VDAC1 function could prevent demyelination in these diseases. We choose CMT1A rat strain^42 as this is arguably the most representative animal model of Charcot-Marie-Tooth disease, mimicking CMT1A the most prevalent CMT in humans^10. Twelve weeks old CMT1A rats were daily treated with TRO19622 for 15 or 30 days and one day or two months after treatment, we analyzed MAPK demyelination pathways by western blot. […] However, these effects disappeared two months after treatment. Then we analyzed phospho-c-jun activation in mSC using immunohistochemistry. […] Next, we measured Schwann cell demyelination and g-ratio by toluidine blue staining on semi-thin sciatic nerve sections and on thin sections using electron microscopy.

[2] = cited from earlier work

T1 sequence (Q60932 14-296): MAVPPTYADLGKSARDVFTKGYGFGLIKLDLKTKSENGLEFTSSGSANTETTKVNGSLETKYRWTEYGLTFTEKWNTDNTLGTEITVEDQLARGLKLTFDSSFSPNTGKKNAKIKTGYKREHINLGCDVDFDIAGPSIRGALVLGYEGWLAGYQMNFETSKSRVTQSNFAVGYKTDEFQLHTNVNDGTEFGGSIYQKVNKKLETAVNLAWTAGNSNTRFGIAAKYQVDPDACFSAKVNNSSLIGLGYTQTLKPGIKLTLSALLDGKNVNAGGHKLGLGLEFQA

CC(C)CCC[C@@H](C)[C@H]1CC[C@H]2[C@@H]3CCC4=C/C(=N\O)CC[C@]4(C)[C@H]3CC[C@]12C [TRO19622, (NZ)—N-[(8S,9S,10R,13R,14S,17R)-10,13-dimethyl-17-[(2R)-6-methylheptan-2-yl]-1,2,6,7,8,9,11,12,14,15,16,17-dodecahydrocyclopenta[a]phenanthren-3-ylidene]hydroxylamine]
mitochondrial calcium release in mSC after nerve crush (VDAC1): able to block calcium release from mitochondria; also recorded: completely abolished; also recorded: blocks mitochondrial calcium release
nuclear phospho-c-jun in mSC after nerve crush (phospho-c-jun): strongly reduced
activation of phospho-ERK1/2, phospho-p38, phospho-JNK and phospho-c-jun [1]: significant down-regulation
activation of phospho-ERK1/2, phospho-p38, phospho-JNK and phospho-c-jun ([1]; listed as TRO16922): prevented
down-regulation of MAPK demyelination pathways after treatment stop ([1]; two months after treatment): disappeared
safety in humans [2]: safe
